Drawing on patent US20240190880A1 (THE REGENTS OF THE UNIVERSITY OF MICHIGAN, priority 2021, published 2024), this text covers DC50 for 13 molecules.

Where only a bound is given, the exact number is not on record here.

The first test concerns the target T1, ER (Homo sapiens, UniProt P03372).
T1 construct: host or cells: T47D and MCF7 human breast cancer cells
T1 sequence (P03372 1-595): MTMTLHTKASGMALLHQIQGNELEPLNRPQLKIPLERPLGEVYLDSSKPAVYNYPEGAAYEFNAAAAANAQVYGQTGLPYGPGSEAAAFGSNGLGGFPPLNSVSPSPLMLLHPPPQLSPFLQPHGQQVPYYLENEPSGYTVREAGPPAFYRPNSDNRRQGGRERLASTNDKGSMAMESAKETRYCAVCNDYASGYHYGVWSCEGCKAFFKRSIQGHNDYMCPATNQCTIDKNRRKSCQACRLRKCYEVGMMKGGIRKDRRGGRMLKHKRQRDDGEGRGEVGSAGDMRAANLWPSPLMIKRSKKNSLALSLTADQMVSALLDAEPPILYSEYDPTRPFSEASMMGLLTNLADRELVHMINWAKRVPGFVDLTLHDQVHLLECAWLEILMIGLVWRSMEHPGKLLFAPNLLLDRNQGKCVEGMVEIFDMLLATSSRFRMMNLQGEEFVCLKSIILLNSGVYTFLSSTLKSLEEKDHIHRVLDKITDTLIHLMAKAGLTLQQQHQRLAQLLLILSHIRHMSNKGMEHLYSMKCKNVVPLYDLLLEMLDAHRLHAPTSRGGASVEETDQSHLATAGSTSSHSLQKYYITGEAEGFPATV
Nature of the test: ER degradation activity, in-cell western blot analysis in T47D cells. Particulars: 16 hours, Table A does not say which cell line (T47D or MCF7), read-out: Potency (DC50). The format is cell-based. A digest of the protocol:
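Human T47D cells (DMEM, 10% FBS) are dosed for 16 h with 0.5% DMSO final and probed with 680- and 800-dye secondary antibodies. Relative ER is calculated against vehicle and untreated wells.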
As for `C[C@@H]1Cc2cc(O)ccc2[C@@H](c2c(F)cc(N3CC4(CCN(C(=O)CN5Cc6cc7c(cc6C5)C(=O)N(C5CCC(=O)NC5=O)C7=O)C4)C3)cc2F)N1CC(F)F` (stereo partly drawn) [E 43, 6-(2-(2-(4-((1S,3R)-2-(2,2-difluoroethyl)-6-hydroxy-3-methyl-1,2,3,4-tetrahydroisoquinolin-1-yl)-3,5-difluorophenyl)-2,6-diazaspiro[3.4]octan-6-yl)-2-oxoethyl)-2-(2,6-dioxopiperidin-3-yl)-6,7-dihydropyrrolo[3,4-f]isoindole-1,3(2H,5H)-dione], the DC50 was less than 10 nM.

In the case of `O=C1CCC(N2C(=O)c3cc4c(cc3C2=O)CN(c2ccc(CN3CC(Oc5ccc([C@@H]6c7ccc(O)cc7CC[C@@H]6c6ccccc6)cc5)C3)cn2)C4)C(=O)N1` (stereo partly drawn) [E328, 2-(2,6-dioxopiperidin-3-yl)-6-(5-((3-(4-((1R,2S)-6-hydroxy-2-phenyl-1,2,3,4-tetrahydronaphthalen-1-yl)phenoxy)azetidin-1-yl)methyl)pyridin-2-yl)-6,7-dihydropyrrolo[3,4-f]isoindole-1,3(2H,5H)-dione], the DC50 was more than 100 nM.

For `C[C@H]1Cc2c([nH]c3ccccc23)[C@H](c2c(F)cc(N3CC4(CCN(C(=O)CN5Cc6cc7c(cc6C5)C(=O)N(C5CCC(=O)NC5=O)C7)CC4)C3)cc2F)N1CC(F)F` (stereo in doubt) [E 85, 3-(6-(2-(2-(4-((1S,3S)-2-(2,2-difluoroethyl)-3-methyl-2,3,4,9-tetrahydro-1H-pyrido[3,4-b]indol-1-yl)-3,5-difluorophenyl)-2,7-diazaspiro[3.5]nonan-7-yl)-2-oxoethyl)-1-oxo-3,5,6,7-tetrahydropyrrolo[3,4-f]isoindol-2(1H)-yl)piperidine-2,6-dione], the DC50 was less than 10 nM.

On to `O=C1CCC(N2C(=O)c3cc4c(cc3C2=O)CN(C2CCN(C(=O)C3CCN(c5ccc([C@@H]6c7ccc(O)cc7CC[C@@H]6c6ccccc6)cc5)CC3)CC2)C4)C(=O)N1` (stereo partly drawn) [E 240, 2-(2,6-dioxopiperidin-3-yl)-6-(1-(1-(4-((1R,2S)-6-hydroxy-2-phenyl-1,2,3,4-tetrahydronaphthalen-1-yl)phenyl)piperidine-4-carbonyl)piperidin-4-yl)-6,7-dihydropyrrolo[3,4-f]isoindole-1,3(2H,5H)-dione], for which the DC50 was more than 100 nM.

`C[C@@H]1Cc2c([nH]c3ccccc23)[C@@H](c2c(F)cc(N3CCC(CN4CCC(N5Cc6cc7c(cc6C5)C(=O)N(C5CCC(=O)NC5=O)C7=O)CC4)CC3)cc2F)N1CC(F)F` (stereo partly drawn) [E 251, 6-(1-((1-(4-((1R,3R)-2-(2,2-difluoroethyl)-3-methyl-2,3,4,9-tetrahydro-1H-pyrido[3,4-b]indol-1-yl)-3,5-difluorophenyl)piperidin-4-yl)methyl)piperidin-4-yl)-2-(2,6-dioxopiperidin-3-yl)-6,7-dihydropyrrolo[3,4-f]isoindole-1,3(2H,5H)-dione]: the DC50 was less than 10 nM.

Take `C[C@@H]1Cc2c([nH]c3ccccc23)[C@@H](c2c(F)cc(N3CC(C(=O)N4CCC(N5Cc6cc7c(cc6C5)C(=O)N(C5CCC(=O)NC5=O)C7=O)CC4)C3)cc2F)N1CC(F)F` (stereo partly drawn) [E 122, 6-(1-(1-(4-((1R,3R)-2-(2,2-difluoroethyl)-3-methyl-2,3,4,9-tetrahydro-1H-pyrido[3,4-b]indol-1-yl)-3,5-difluorophenyl)azetidine-3-carbonyl)piperidin-4-yl)-2-(2,6-dioxopiperidin-3-yl)-6,7-dihydropyrrolo[3,4-f]isoindole-1,3(2H,5H)-dione]: the DC50 was less than 10 nM.

On to `C[C@@H]1Cc2c([nH]c3ccccc23)[C@@H](c2ccc(N3CCC4(CCN(C(=O)CN5Cc6cc7c(cc6C5)C(=O)N(C5CCC(=O)NC5=O)C7=O)CC4)CC3)cc2)N1CC(F)F` (stereo partly drawn) [E 265, 6-(2-(9-(4-((1R,3R)-2-(2,2-difluoroethyl)-3-methyl-2,3,4,9-tetrahydro-1H-pyrido[3,4-b]indol-1-yl)phenyl)-3,9-diazaspiro[5.5]undecan-3-yl)-2-oxoethyl)-2-(2,6-dioxopiperidin-3-yl)-6,7-dihydropyrrolo[3,4-f]isoindole-1,3(2H,5H)-dione], for which the DC50 fell in the range of 10 to 100 nM.

As for `O=C1CCC(N2C(=O)c3cc4c(cc3C2=O)CN(C2CCC(NCC3CN(c5ccc([C@@H]6c7ccc(O)cc7CC[C@@H]6c6ccccc6)cc5)C3)CC2)C4)C(=O)N1` (stereo partly drawn) [E 339, 2-(2,6-dioxopiperidin-3-yl)-6-(4-(((1-(4-((1R,2S)-6-hydroxy-2-phenyl-1,2,3,4-tetrahydronaphthalen-1-yl)phenyl)azetidin-3-yl)methyl)amino)cyclohexyl)-6,7-dihydropyrrolo[3,4-f]isoindole-1,3(2H,5H)-dione], the DC50 was more than 100 nM.

Turning to `CN(c1ccc([C@H]2c3ccc(O)cc3CC[C@H]2c2ccccc2)cc1)C1CN([C@H]2CC[C@H](C(=O)N3Cc4cc5c(cc4C3)C(=O)N(C3CCC(=O)NC3=O)C5=O)CC2)C1` (stereo partly drawn) [E 395, 2-(2,6-dioxopiperidin-3-yl)-6-((1R,4s)-4-(3-((4-((1S,2R)-6-hydroxy-2-phenyl-1,2,3,4-tetrahydronaphthalen-1-yl)phenyl)(methyl)amino)azetidin-1-yl)cyclohexane-1-carbonyl)-6,7-dihydropyrrolo[3,4-f]isoindole-1,3(2H,5H)-dione], the DC50 was more than 100 nM.

The same test, now with this note: compounds 16 hours, Table A does not say whether T47D or MCF7, read-out: Potency (DC50).
As to `C[C@@H]1Cc2c([nH]c3ccccc23)[C@@H](c2ccc(C3CCC4(CC3)CCN(C(=O)CN3Cc5cc6c(cc5C3)C(=O)N(C3CCC(=O)NC3=O)C6=O)CC4)cc2F)N1CC(F)F` (stereo partly drawn) [E 479, 6-(2-(9-(4-((1R,3R)-2-(2,2-difluoroethyl)-3-methyl-2,3,4,9-tetrahydro-1H-pyrido[3,4-b]indol-1-yl)-3-fluorophenyl)-3-azaspiro[5.5]undecan-3-yl)-2-oxoethyl)-2-(2,6-dioxopiperidin-3-yl)-6,7-dihydropyrrolo[3,4-f]isoindole-1,3(2H,5H)-dione], the DC50 was more than 100 nM.

For the molecule `O=C1CCC(N2C(=O)c3cc4c(cc3C2=O)CC2(C4)CN(C(=O)C3CCN(c4ccc([C@@H]5c6ccc(O)cc6CC[C@@H]5c5ccccc5)cc4)CC3)C2)C(=O)N1` (stereo partly drawn) [E 501, 2′-(2,6-dioxopiperidin-3-yl)-1-(1-(4-((1R,2S)-6-hydroxy-2-phenyl-1,2,3,4-tetrahydronaphthalen-1-yl)phenyl)piperidine-4-carbonyl)-5′,7′-dihydro-1′H-spiro[azetidine-3,6′-cyclopenta[f]isoindole]-1′,3′(2′H)-dione], the DC50 is more than 100 nM.

Take `COc1cc(C2CCC(C(=O)N3CCC(N4Cc5cc6c(cc5C4)C(=O)N(C4CCC(=O)NC4=O)C6=O)CC3)CC2)cnc1[C@@H]1c2[nH]c3ccccc3c2C[C@@H](C)N1CC(F)F` (stereo partly drawn) [E 405, 6-(1-(4-(6-((1S,3R)-2-(2,2-difluoroethyl)-3-methyl-2,3,4,9-tetrahydro-1H-pyrido[3,4-b]indol-1-yl)-5-methoxypyridin-3-yl)cyclohexane-1-carbonyl)piperidin-4-yl)-2-(2,6-dioxopiperidin-3-yl)-6,7-dihydropyrrolo[3,4-f]isoindole-1,3(2H,5H)-dione]: the DC50 was more than 100 nM.

With `C[C@@H]1Cc2cc(O)ccc2[C@@H](c2c(F)cc(NC3CC4(CCN(C(=O)CN5Cc6cc7c(cc6C5)C(=O)N(C5CCC(=O)NC5=O)C7=O)CC4)C3)cc2F)N1CC(F)F` (stereo partly drawn) [E 451, 6-(2-(2-((4-((1S,3R)-2-(2,2-difluoroethyl)-6-hydroxy-3-methyl-1,2,3,4-tetrahydroisoquinolin-1-yl)-3,5-difluorophenyl)amino)-7-azaspiro[3.5]nonan-7-yl)-2-oxoethyl)-2-(2,6-dioxopiperidin-3-yl)-6,7-dihydropyrrolo[3,4-f]isoindole-1,3(2H,5H)-dione], the DC50 was 10 to 100 nM.
